{
  "source": "paper PMC6321136",
  "about": "“Combined In Vitro Studies and in Silico Target Fishing for the Evaluation of the Biological Activities of Diphylleia cymosa and Podophyllum hexandrum” (Molecules, 2018)",
  "key": {"[1]": {"test_system": "Antagonist, retinoid-related orphan receptor gamma (ROR-gamma)", "design": "method as in PubChem Bioassay AID 1159523", "settings": "ref PubChem Bioassay AID 1159523; cited from earlier work"}, "[2]": {"assay": "Cytotoxicity in THP-1 cells, SRB method", "type": "cell-based", "settings": "human, THP-1 cells (PMA-treated, adherent)", "procedure": "The assay was performed following the sulforhodamine B (SRB) method. THP-1 cells (acute human monocytic leukemia cells, ATCC TIB-202) were cultured in a RPMI medium supplemented with 10% fetal bovine serum. A cell suspension was prepared at the density of 1 × 10^6 cells/mL with 2 μL of PMA (phorbol myristyl acetate, Sigma, St. Louis, MO, USA, 30 µg/mL). A portion of 100 μL of this suspension was transferred to the wells of a microplate. The plate was incubated at 37 °C, in a 5% CO2 atmosphere, for about 12 to 16 h to allow cells to adhere. After that, 100 μL of each sample (400, 200, 100, 50 and 25 μg/mL) were added to the wells. The plate was then incubated at 37 °C for 18 h. After incubation, 100 μL of cold trichloroacetic acid (TCA, 10%) solution was added in each well. The plate was incubated at 4 °C for 1 h. The supernatant was discarded and the wells were washed three times with 200 μL of distilled water. Then, the wells were allowed to dry for 24 h. […] The plate was then stirred for 5 min inside the microplate reader. The optical density was measured at 510 nm in a microplate reader. […] Cell viability was calculated according to the formula (A − B/C − B) × 100, where A, B and C corresponds to the absorbance measured for the samples, blank and negative control, respectively. […]"}, "[3]": {"test_system": "Cytotoxicity, Agonist, AP-1", "design": "method as in PubChem Bioassay AID 1159525", "settings": "ref PubChem Bioassay AID 1159525; cited from earlier work"}, "THP-1 cells": {"test_system": "THP-1 cells", "settings": "THP-1 cells at 10 µM; ref [69]; cited from earlier work"}, "AP1 Signaling Pathway": {"test_system": "AP1 Signaling Pathway", "design": "method as in PubChem Bioassay AID 357", "settings": "ref PubChem Bioassay AID 357; cited from earlier work"}, "Anti-Inflammatory model": {"test_system": "Anti-Inflammatory model", "design": "method as in PubChem Bioassay AID 457", "settings": "ref PubChem Bioassay AID 457; cited from earlier work"}, "[4]": {"target": "T1, AChE from Electropardus electricous type VI-S (Electrophorus electricus, UniProt O42275)", "T1 construct": "purchased Sigma-Aldrich, St. Louis, MO, USA type VI-S (catalogue number not given)", "T1 sequence (O42275 24-633)": "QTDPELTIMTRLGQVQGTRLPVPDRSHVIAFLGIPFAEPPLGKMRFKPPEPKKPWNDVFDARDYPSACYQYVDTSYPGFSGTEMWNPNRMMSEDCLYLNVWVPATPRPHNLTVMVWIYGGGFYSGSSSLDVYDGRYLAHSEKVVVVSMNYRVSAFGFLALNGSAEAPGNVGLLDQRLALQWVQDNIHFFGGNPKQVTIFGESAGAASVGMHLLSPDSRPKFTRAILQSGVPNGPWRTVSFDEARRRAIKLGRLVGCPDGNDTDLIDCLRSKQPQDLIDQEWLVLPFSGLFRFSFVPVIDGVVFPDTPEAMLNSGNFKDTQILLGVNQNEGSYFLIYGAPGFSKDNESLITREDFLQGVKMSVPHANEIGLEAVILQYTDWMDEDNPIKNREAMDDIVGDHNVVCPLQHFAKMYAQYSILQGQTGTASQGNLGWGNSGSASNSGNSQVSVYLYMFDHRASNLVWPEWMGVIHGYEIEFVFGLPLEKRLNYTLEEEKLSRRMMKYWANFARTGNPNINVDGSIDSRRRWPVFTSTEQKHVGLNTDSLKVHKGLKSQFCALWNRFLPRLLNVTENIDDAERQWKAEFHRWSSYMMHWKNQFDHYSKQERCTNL", "assay": "AChE inhibition microplate assay (Ellman)", "type": "biochemical", "settings": "400 μg/mL; read-out: Inhibition of AChE Microplate (%I)", "procedure": "AChE inhibition assay was performed on a 96-well microplate according to Ellman’s method with adaptations. Initially, the extracts were solubilized on MeOH, at 20 mg/mL, and diluted to 4 mg/mL using Tris/HCl buffer solution (50 mM, pH 8.0). A portion of 25 µL of the samples (4 mg/mL) were added to the wells of the microplate, as well as 50 μL of 0.1% BSA solution in Tris/HCl Buffe (pH 8.0), 125 μL of DTNB in Tris/HCl (3 mM) containing NaCl (10 mM) and MgCl2 (20 mM). Subsequently, 25 μL of the ATCI aqueous solution (15 mM) was added to all wells. Then, a background reading was performed at 405 nm using microplate reader (Multiskan Go, Thermo Scientific, Whaltham, MA, USA). The enzymatic reaction was initiated after the addition of 25 µL of AChE solution (AChE from Electropardus electricous type VI-S, 0.2 U/mL, Sigma-Aldrich, St. Louis, MO, USA) in Tris/HCl buffer (50 mM, pH 8.0) containing 0.1% BSA. The kinetic cycle was performed in a period of 25 min, with readings at 5 min intervals, at 405 nm. Physostigmine (Eserine, Sigma, St. Louis, MO, USA) was employed as the positive control. […] The assay was performed in triplicate and the % of inhibition (%I) was calculated according to the following equation: %I = [(a − b)/a] × 100, where a = ΔA/min of control; b = ΔA/min of test sample; ΔA = change in absorbance between time x and time zero. […]"}, "Anticancer, Leukemia": {"test_system": "Anticancer, Leukemia", "design": "method as in PubChem Bioassay AID 250", "settings": "ref PubChem Bioassay AID 250; cited from earlier work"}, "[5]": {"assay": "β-Carotene/linoleic acid co-oxidation assay", "procedure": "The evaluation of the antioxidant activity using the β-carotene/linoleic acid co-oxidation system was performed according to Duarte-Almeida et al., with adaptations. The extracts were solubilized in MeOH (2.2 mg/mL) and further diluted to concentrations ranging from 3.125 to 200 μg/mL. An aliquot of 25 μL of sample solutions were added in the 96-well microplate. 25 mg of linoleic acid and 100 mg Tween 20 (Sigma, St. Louis, MO, USA) were added to a round-bottom flask containing 1 mL of a β-carotene solution (1 mg/mL, Sigma, St. Louis, MO, USA) in chloroform. The latter was removed in a rotatory evaporator and, then, 50 mL of aerated water was added to the flask, affording the β-carotene emulsion. Portions of 250 μL of the freshly prepared emulsion were added to the wells corresponding to the odd columns of a microplate. […] Readings were performed immediately at 470 nm. After the first reading, the microplate was incubated at 45 °C and the kinetic cycle was performed with readings at 15 min intervals for a total of 120 min. The antioxidant activity was expressed as % of inhibition of lipid peroxidation (%I), using the formula (I% = Ac (initial abs − Final abs) − Aam (final abs − Initial abs)/Ac × 100). Assays were performed in triplicate and IC50 values were determined by non-linear regression using GraphPad Prism, version 6.0 (GraphPad Software, San Diego, CA, USA)."}},
  "data": [
    {"smiles": "COc1cc([C@@H]2c3cc4c(cc3[C@H](O)[C@H]3COC(=O)[C@H]23)OCO4)cc(OC)c1OC", "note": "[Podophyllotoxin, podophyllotoxin]", "values": [
      {"measurement": "Exper. Activity", "setting": "[1]", "result": "Active"},
      {"measurement": "CC50 at 18 h", "setting": "[2]", "result": "400 ± 10.3", "unit": "µg/mL"},
      {"measurement": "Exper. Activity", "setting": "[3]", "result": "Inactive"},
      {"measurement": "cytotoxicity", "setting": "THP-1 cells", "result": "no cytotoxicity was observed"},
      {"measurement": "Exper. Activity", "setting": "AP1 Signaling Pathway", "result": "Inactive"},
      {"measurement": "Exper. Activity", "setting": "Anti-Inflammatory model", "result": "Inactive"},
      {"measurement": "inhibition at 400 µg/mL", "setting": "[4]", "result": "32.7 ± 5.38", "unit": "%"},
      {"measurement": "Exper. Activity", "setting": "Anticancer, Leukemia", "result": "Inactive"},
      {"measurement": "Antioxidant Activity (IC50-µg/mL) β-Carotene/linoleic Acid", "setting": "[5]", "result": ">200", "unit": "µg/mL"}
    ]}
  ]
}
